Reference: US20250134952A1, “METHODS FOR IMPROVING THE EFFICACY OF HDAC INHIBITOR THERAPY AND PREDICTING THE RESPONSE TO TREATMENT WITH HDAC INHIBITOR” (INSTITUT NATIONAL DE LA SANTÉ ET DE LA RECHERCHE MÉDICALE, priority 2021, published 2025)

How the values were obtained:
MCF7shctrl and MCF7shTau = assay: Cell cycle distribution by FACS (propidium iodide and EdU staining); type: cell-based, human; conditions: 100 nM TSA, 48 h
Protocol: FIG. 1: Tau inhibition increases MCF7 breast cancer cell line sensitivity to TSA. (A) Tau protein expression in MCF7, MCF7shctrl and shTau were quantify by Elisa. (B) Effect of 100 nM TSA (48 h) on cell death in the MCF7shctrl and MCF7shTau subclones. Cell death was determined by staining and flow cytometric analysis as described in the materials and methods. (C) Effect of 100 nM TSA (48 h) on apoptosis in the MCF7shctrl and MCF7shTau subclones. Apoptosis was determined by flow cytometric analysis of the PI-positive and Annexin-V-positive cells as described in the materials and methods. (D) Cell cycle distribution was determined by FACS analysis of combined propidium iodide and EdU staining in MCF7shctrl and MCF7shTau in the absence or presence 100 nM TSA, 48 h. Data are mean±SD **P<0.01***P<0.001. All results are representative of three independent experiments.
SH-SY5Y human neuroblastoma cells expressing Tau4R tagged with the streptavidin-binding peptide (SBP) (referred as SH-SY5Y-(SBP)Tau4R) (Chauderlier et al., 2018), SH-SY5Y-Tet-on-Tau4R, Hela cells, MCF7 and MDA-MB-231 were cultured in Dulbecco's Modified Eagle's Medium with 10% fetal bovine serum, 2 mM L-glutamine and 50 U/ml penicillin/streptomycin (Gibco) at 37° C. in 5% CO2 humidified air. Transient and stable transfections experiments were performed using the lipofectamine 3000 reagent (Invitrogen). Transient luciferase assays were performed with the dual-luciferase assay system (Promega). For stable clones, luciferase activities were measured using the luciferase assay system (Promega) and normalized against protein concentration. […]
Cell cycle, Cell death and Apoptosis were analyzed with the Click-It Plus EdU Alexa Fluor 647 kit (Thermofisher), Zombie NIR dye (Zombie NIR Fixable Viability Kit—Biolegend) and Annexin V-FITC Apoptosis Detection Kit II (Calbiochem) according to the manufacturer's guideline. Fluorescence was analyzed using a LSR FORTESSA X20 cytometer (Becton Dickinson).

[1] = system: GAL4 UAS promoter in GAL4UAS responsive luciferase reporter Hela stable cell line; assay: ChIP-qPCR of H3 acetylation or Tau occupancy on the GAL4UAS promoter; type: cell-based
Description: (A) Chromatin immunoprecipitations-qPCR analysis of H3 acetylation and Tau occupancy on the GAPDH promoter in MCF7shctrl cells in the indicated conditions. MCF7shctrl cells were subjected to cross-linking by 1% formaldehyde. Chromatin fragments were then immunoprecipitated using antibodies (Ab) against acetylated H3 (ac-H3) or Tau and analyzed by quantitative PCR for the presence of the GAPDH promoter. (B) Functional organization of the p21 promoter. (C) ChIP-qPCR analysis of H3 acetylation in MCF7shctrl or shTau cells or (D) Tau occupancy in MCF7shctrl cells on the p21 promoter. (E) ChIP-qPCR analysis of H3 acetylation or Tau occupancy on the stably transfected GAL4UAS responsive luciferase reporter transfected, or not, with Tau4R, then 24 h later treated with 100 nM TSA for 24 h. Cells were then subjected to cross-linking by 1% formaldehyde. Chromatin fragments were then immunoprecipitated using antibodies (Ab) against acetylated H3 or Tau and analyzed by quantitative PCR for the presence of the GAL4 UAS promoter. Quantification of enrichment is represented as fold-enrichment relative to IgG. Data are mean±SD **P<0.01***P<0.001
The ChIP protocol used was previously described (Lefebvre et al., 2006). […]

CC(/C=C/C(=O)NO)=C\[C@@H](C)C(=O)c1ccc(N(C)C)cc1 [TSA, 2,4-Heptadienamide, 7-[4-(dimethylamino)phenyl]-N-hydroxy-4,6-dimethyl-7-oxo-, (2E,4E,6R)-] was tested, and the “cells in G1” value (MCF7shctrl and MCF7shTau; MCF7shTau) was 41.4%, the “cells in G1” value (MCF7shctrl and MCF7shTau; MCF7shctrl) was 39.6% and the “cells in S-phase” value (MCF7shctrl and MCF7shTau; MCF7shctrl) was 19.2%. For the same molecule, the “TSA-induced increase of ac-H3 in the presence of transfected Tau4R” value ([1]; 100 nM TSA, Tau4R transfected HeLa cells) was “abrogated” and the Tau4R enrichment ([1]; TSA-treated condition (100 nM), Tau4R transfected) was 16 fold.
